In PMC10451377, “Rationally Designed Pyrimidine Compounds: Promising Novel Antibiotics for the Treatment of Staphylococcus aureus-Associated Bovine Mastitis” (Antibiotics, 2023):
In brackets after ≈: the same amount, converted by molar mass.

Legend:
LDH release assay [1] = type: cell-based; conditions: human, HepG2 cells
[2] = Recovery of PC206 from quarter milk after intramammary infusion; type: in vivo; conditions: cows
Experimental: The innocuity of PC206 was evaluated in cows, as previously described for other test substances. Following morning milking, each of the four mammary gland quarters […] was infused with various doses of PC206 (100, 250, 500 mg) or saline as a negative control. […] Cows were milked using an individual quarter-milking unit in order to measure individual quarter-milk production. PC206 concentration in milk was also measured; milk samples were diluted with an equal volume of isopropanol and washed 3 times with hexane. PC206 was extracted using ethyl acetate, filtered on Na2SO4, and evaporated. The dried samples were diluted 80:20 in ACN:H2O containing an internal standard. The content of PC206 was determined using single-ion monitoring (SIMS) on UPLC-MS.

S. simulans = assay: Susceptibility of isolate panel (MIC50, MIC90, range); type: cell-based
From the text: (§1) Reference strains for this study (S. aureus ATCC 29213, ATCC 29740 [bovine mastitis strain Newbould], S. epidermidis ATCC 12228, E. coli ATCC 35695, E. faecalis ATCC 29212) were obtained from the American Type Culture Collection (ATCC, Rockville, MD). S. aureus strains CMRSA-10 and CMRSA-2 were obtained from the Laboratoire de santé publique du Québec (LSPQ, Sainte-Anne-de-Bellevue, QC, Canada) and are Canadian CA-MRSA USA-300 and HA-MRSA USA-100 clones, respectively. The strain E. coli imp4213 (lptD), used as a control in MIC assays, is a derivative of E. coli ATCC 35695 (E. coli MC4100) with an increased membrane permeability. […] Other MRSA strains used in this study are clinical isolates of human origin obtained from the microbiology laboratory of the Centre Hospitalier Universitaire de Sherbrooke (CHUS, Sherbrooke, QC, Canada). Bovine mastitis strains (S. aureus, S. chromogenes, S. haemolyticus, S. hominis, S. simulans) were obtained from the Canadian Bovine Mastitis and Milk Quality Research Network (CBRQMN, St-Hyacinthe, QC, Canada). Among these strains, S. aureus 2117 is a high producer of biofilm and was used in the biofilm-eradication assay. S. epidermidis isolates were provided by Centre de Recherche en Infectiologie (CRI) de Québec (Québec, QC, Canada).
(§2) The antibacterial activity of the most promising compound, PC206, was also evaluated against larger groups of clinical isolates of human and animal origin. The MIC50 and MIC90 values represented the concentrations of drug required to inhibit the growth of 50% and 90% of the bacterial strains tested, respectively.

S. chromogenes = assay: as above; type: cell-based
From the text: as §1, §2

S. hominis = assay: as above; type: cell-based; conditions: S. hominis, 10 isolates
From the text: as §1, §2

S. epidermidis = assay: as above; type: cell-based; conditions: S. epidermidis, 10 isolates
From the text: as §1, §2

S. haemolitycus = assay: as above; type: cell-based, S. haemolyticus
From the text: as §1, §2

[3] = tested on: guanine riboswitch-lacZ fusion construct (xpt-lacZ); assay: Riboswitch regulation assay (lacZ-gene reporter); type: cell-based, B. subtilis; conditions: 64 µg/mL
From the text: The novel pyrimidine compounds, especially PC206, display specificity and potency against some staphylococci but not the other bacterial genus (Table 1 and Table 2). Because they are structurally derived from PC1 and PC2, these novel antibiotic candidates are expected to have the same mode of action. […] To verify this hypothesis, a strain of B. subtilis with a guanine riboswitch-lacZ fusion construct (named xpt-lacZ) integrated in its chromosome was exposed to these new antimicrobials. […] Therefore, it is an adequate reporter species. The metabolization of substrate ONPG into colored ONP was normalized by the bacterial suspension absorbance at 600 nm (Miller units) and relativized to the untreated condition.
β-galactosidase gene expression in the presence of the new pyrimidine analogs was studied, using an xpt-lacZ transcriptional fusion construct integrated in the genome of B. subtilis as previously described. Briefly, cultures were grown for 5 h at 35 °C in CAMHB, from an initial optical density of 0.05 at 600 nm (OD600), and then diluted 1:20 and in the presence of different concentrations of the compounds tested. Cultures were centrifuged for 10 min at 13,100 rpm, the supernatant was discarded, and pellets were suspended in a Z-buffer (NaH2PO4 40 mM, Na2HPO4 60 mM, MgSO4 1 mM, KCl 10 mM). Cultures OD600 were measured, and bacteria were then lysed with lysozyme (1 mg/mL) and β-mercaptoethanol 50 mM for 30 min. Lysates were centrifuged for 10 min at 13,100 rpm, and supernatants were incubated for 5 min at 30 °C with the substrate orthonitrophenyl-β-galactoside (ONPG; Sigma Aldrich). Reactions were stopped with Na2CO3 1M, supernatants OD420 were measured, and Miller units were calculated. A decrease in β-galactosidase activity indicated binding of the test compound to the riboswitch. Guanine and oxacillin were used as […] controls, respectively. The formula to measure Miller units is as follows: Millerunits=1000×OD420/t·v·OD600
Here, t represents the time of incubation with ONPG, and v represents the volume of the reaction.

LDH release assay [4] = type: cell-based; conditions: bovine, MAC-T cells
MRSA = assay: Susceptibility of isolate panel (MIC50, MIC90, range); type: cell-based, Staphylococcus aureus; conditions: 42 isolates
From the text: as §1, §2

Bovine S. aureus = assay: as above; type: cell-based, Staphylococcus aureus; conditions: Bovine S. aureus, 48 isolates
From the text: as §1, §2

Chemical stability = type: physicochemical
[5] = tested on: Enterococcus faecalis ATCC 29212; assay: Broth microdilution MIC; conditions: ATCC29212, read-out: Broth Microdilution MIC
[6] = Staphylococcus aureus, read-out: MIC50
[7] = Staphylococcus aureus, read-out: MIC90

Compound: CCCCCCNc1cc(N)nc(N)n1 [PC206]
- CC50 at 24 h (LDH release assay [1]): 149 ± 24 µM
- Time the concentration in quarter milk remained above the MIC (8 µg/mL) ([2]; single intramammary infusion of 100 mg): over 2 h
- Time the concentration in quarter milk remained above the MIC (8 µg/mL) ([2]; single intramammary infusion of 250 mg): > 4 h
- Time the concentration in quarter milk remained above the MIC (8 µg/mL) ([2]; single intramammary infusion of 500 mg): about 8 h
- MIC Range (S. simulans; S. simulans, 5 isolates): 64 to 128 µg/mL
- MIC90 (S. simulans; Staphylococcus simulans): 128 µg/mL (≈ 612 µM)
- MIC50 (S. simulans; Staphylococcus simulans, S. simulans, 5 isolates, read-out: MIC50): 64 µg/mL (≈ 306 µM)
- MIC90 (S. chromogenes): 128 µg/mL (≈ 612 µM)
- MIC Range (S. chromogenes; S. chromogenes, 5 isolates): 16 to 128 µg/mL
- MIC50 (S. chromogenes; S. chromogenes, 5 isolates, read-out: MIC50): 32 µg/mL (≈ 153 µM)
- MIC Range (S. hominis): 1 to 32 µg/mL
- MIC50 (S. hominis; Staphylococcus hominis, read-out: MIC50): 8 µg/mL (≈ 38.2 µM)
- MIC90 (S. hominis; Staphylococcus hominis, read-out: MIC90): 32 µg/mL (≈ 153 µM)
- MIC Range (S. epidermidis): 2 to 16 µg/mL
- MIC50 (S. epidermidis; Staphylococcus epidermidis, read-out: MIC50): 4 µg/mL (≈ 19.1 µM)
- MIC90 (S. epidermidis; Staphylococcus epidermidis, read-out: MIC90): 8 µg/mL (≈ 38.2 µM)
- MIC Range (S. haemolitycus; S. haemolitycus, 10 isolates): 4 to 128 µg/mL
- MIC90 (S. haemolitycus; Staphylococcus haemolyticus): 128 µg/mL (≈ 612 µM)
- MIC50 (S. haemolitycus; Staphylococcus haemolyticus, S. haemolitycus, 10 isolates, read-out: MIC50): 64 µg/mL (≈ 306 µM)
- Miller units remaining, relative to the untreated condition [3]: 35%
- CC50 at 24 h (LDH release assay [4]; 24 h): > 600 µM
- CC50 at 24 h (LDH release assay [4]; converted from μM): > 125 µg/mL
- MIC Range (MRSA): 2 to 128 µg/mL
- MIC50 (MRSA; [6]): 8 µg/mL (≈ 38.2 µM)
- MIC90 (MRSA; [7]): 16 µg/mL (≈ 76.4 µM)
- MIC Range (Bovine S. aureus): 0.5 to 64 µg/mL
- MIC50 (Bovine S. aureus; [6]): 8 µg/mL (≈ 38.2 µM)
- MIC90 (Bovine S. aureus; [7]): 16 µg/mL (≈ 76.4 µM)
- Stability in solution (Chemical stability): remains stable in solution
- MIC [5]: 128 µg/mL (≈ 612 µM)
